The series has as its system human cervical cancer Caski cells (HPV16 positive). The series is described as follows: Cytotoxicity assay (MTT, Reed-Muench). The format is cell-based. The note with it: 72 h. Here is the method:
(1) Cytotoxicity assay: human cervical cancer Caski cells (HPV16 positive) at an exponential phase cultured through a conventional culturing method is digested by a trypsase, such that the attached cells are detached. The cells are suspended in a liquid medium containing 10% of fetal bovine serum, and are cultured by inoculating in a 96-well plate, each well containing 1×10^5 cells. The cells are incubated in a CO2 incubator for 24 h to make the cells be attached. labeled amount of paracetamol or paracetamol pharmaceutical preparation prepared from examples 1-21 is dissolved in DMSO used for cell culture, and then the solution is diluted with the liquid medium into a series of drug culture media with increasing concentrations, wherein the concentrations are sequentially 25, 50, 100, 200 and 400 μg/mL. The culture medium is decanted, 100 μL drug culture medium formulated according to a multiple relationship is added into the administered group, while a culture medium is used instead of the drug solution for the control group, wherein four vice holes are used at each concentration, and the cells are incubated in a CO2 incubator for 72 h. The median toxic concentration (TC50) and maximal atoxic concentration (TC0) are calculated based on a Reed-Muench method, by using a MTT method.

The structures appear in SMILES notation. Bounds are passed on as bounds.

The values below come from patent US10045954B2, “Use of novel anti-HPV pharmaceutical preparation” (INSTITUTE OF BIOMEDICAL ENGINEERING, CHINESE ACADEMY OF …, priority 2013, dated 2018).

Consider `CC(=O)Nc1ccc(O)cc1` [Example 1, paracetamol], for which the TC0 was 200 µg/mL and the TC50 is >200 mg/L.
